# Biological target: T1, Recombinant (1-346) HPK1 (h) (Homo sapiens, UniProt Q92918)
# T1 construct: Recombinant (1-346) HPK1 (h) is incubated with 8 mM MOPS pH 7.0
# T1 sequence (Q92918 1-346): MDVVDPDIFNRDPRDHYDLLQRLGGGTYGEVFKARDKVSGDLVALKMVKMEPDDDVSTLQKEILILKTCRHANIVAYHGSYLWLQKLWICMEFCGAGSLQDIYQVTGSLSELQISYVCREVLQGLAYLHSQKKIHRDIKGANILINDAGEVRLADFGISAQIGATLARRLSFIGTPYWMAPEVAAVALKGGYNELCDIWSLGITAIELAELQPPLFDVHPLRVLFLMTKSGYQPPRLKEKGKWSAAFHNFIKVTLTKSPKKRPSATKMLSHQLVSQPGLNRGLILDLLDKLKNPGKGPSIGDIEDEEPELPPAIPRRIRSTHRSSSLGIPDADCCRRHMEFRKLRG
# Experiment: HPK1 human STE kinase enzymatic radiometric assay
# Format: biochemical
# Conditions: read-out: HPK1 IC50 nM Range
# Method: (a) HPK1 Human STE Kinase Enzymatic Radiometric Assay
# A stock solution of 10 mM of test compound is prepared in DMSO. The compound plate was prepared by 3-fold and 9-point serial dilutions. Recombinant (1-346) HPK1 (h) is incubated with 8 mM MOPS pH 7.0, 0.2 mM EDTA, 0.33 mg/mL myelin basic protein, 10 mM MgAcetate and [gamma-33P]-ATP (specific activity and concentration as required). The reaction is initiated by the addition of the Mg/ATP mix. After incubation for 40 minutes at RT, the reaction is stopped by the addition of phosphoric acid to a concentration of 0.5%, 10 μL of the reaction is then spotted onto a P30 filtermat and washed four times for 4 minutes in 0.425% phosphoric acid and once in methanol prior to drying and scintillation counting. For more details of kinase assay protocols, see: Gao, Y. et. al.; Biochem J.451 (2): 313-328, 2013.
row,SMILES,IC50
1,"CN(C)Cc1cc(-c2nc(-c3cc(F)c4c(=O)[nH]cc(F)c4c3)c(N)nc2F)ccc1N1CCOCC1 [Example I-120, 6-(3-amino-6-(3-((dimethylamino)methyl)-4-morpholinophenyl)-5-fluoropyrazin-2-yl)-4,8-difluoroisoquinolin-1(2H)-one]",0.1 to 10 nM
2,"Cc1[nH]c(=O)c2ccc(-c3nc(-c4ccc(N5CCOCC5)c(CN(C)C)c4)c(F)nc3N)cc2c1Cl [Example I-124, 6-(3-amino-6-(3-((dimethylamino)methyl)-4-morpholinophenyl)-5-fluoropyrazin-2-yl)-4-chloro-3-methylisoquinolin-1(2H)-one]",0.1 to 10 nM
3,"Cc1[nH]c(=O)c2ccc(-c3nc(-c4ccc(C5CCOCC5)c(CN(C)C)c4)c(F)nc3N)cc2c1Cl [Example I-125, 6-(3-amino-6-(3-((dimethylamino)methyl)-4-(tetrahydro-2H-pyran-4-yl)phenyl)-5-fluoropyrazin-2-yl)-4-chloro-3-methylisoquinolin-1(2H)-one]",0.1 to 10 nM
4,"COC1CCN(Cc2cc(-c3nc(-c4ccc5c(c4)CCNC5=O)c(N)nc3F)ccc2N2CCSCC2)CC1 [Example I-126, 6-(3-amino-5-fluoro-6-(3-((4-methoxypiperidin-1-yl)methyl)-4-thiomorpholinophenyl)pyrazin-2-yl)-3,4-dihydroisoquinolin-1(2H)-one]",11 to 100 nM
5,"COC1CCN(Cc2cc(-c3nc(-c4cc5c(cc4F)C(=O)NCC5)c(N)nc3F)ccc2N2CCSCC2)CC1 [Example I-127, 6-(3-amino-5-fluoro-6-(3-((4-methoxypiperidin-1-yl)methyl)-4-thiomorpholinophenyl)pyrazin-2-yl)-7-fluoro-3,4-dihydroisoquinolin-1(2H)-one]",11 to 100 nM
6,"CN(C)Cc1cc(-c2nc(-c3ccc4c(c3)CCNC4=O)c(N)nc2F)ccc1N1CCSCC1 [Example I-128, 6-(3-amino-6-(3-((dimethylamino)methyl)-4-thiomorpholinophenyl)-5-fluoropyrazin-2-yl)-3,4-dihydroisoquinolin-1(2H)-one]",0.1 to 10 nM
7,"CN(C)Cc1cc(-c2nc(-c3cc4c(cc3F)C(=O)NCC4)c(N)nc2F)ccc1N1CCSCC1 [Example I-129, 6-(3-amino-6-(3-((dimethylamino)methyl)-4-thiomorpholinophenyl)-5-fluoropyrazin-2-yl)-7-fluoro-3,4-dihydroisoquinolin-1(2H)-one]",0.1 to 10 nM
8,"COC1CCN(Cc2cc(-c3nc(-c4cc5c(cc4F)C(=O)NCC5)c(N)nc3F)ccc2C2CCOCC2)CC1 [Example I-132, 6-(3-amino-5-fluoro-6-(3-((4-methoxypiperidin-1-yl)methyl)-4-(tetrahydro-2H-pyran-4-yl)phenyl)pyrazin-2-yl)-7-fluoro-3,4-dihydroisoquinolin-1(2H)-one]",11 to 100 nM
9,"COC1CCN(Cc2cc(-c3nc(-c4cc5c(cc4F)C(=O)NCC5)c(N)nc3F)ccc2N2CCOCC2)C1 (centres unmarked) [Example I-134, 6-(3-amino-5-fluoro-6-(3-((3-methoxypyrrolidin-1-yl)methyl)-4-morpholinophenyl)pyrazin-2-yl)-7-fluoro-3,4-dihydroisoquinolin-1(2H)-one]",0.1 to 10 nM
10,"CC1NC(=O)c2c(F)cc(-c3nc(-c4ccc([C@]56C[C@H]5CN(C)C6)cc4)c(F)nc3N)cc2C1(F)F (stereo partly drawn) [Example I-135, 6-(3-amino-5-fluoro-6-(4-((1S,5R)-3-methyl-3-azabicyclo[3.1.0]hexan-1-yl)phenyl)pyrazin-2-yl)-4,4,8-trifluoro-3-methyl-3,4-dihydroisoquinolin-1(2H)-one]",11 to 100 nM
11,"Nc1nc(F)c(-c2ccc(C3CCOCC3)c(CN3CCCC3)c2)nc1-c1ccc2c(c1)CCNC2=O [Example I-147, 6-(3-amino-5-fluoro-6-(3-(pyrrolidin-1-ylmethyl)-4-(tetrahydro-2H-pyran-4-yl)phenyl)pyrazin-2-yl)-3,4-dihydroisoquinolin-1(2H)-one]",0.1 to 10 nM

# Further lines, results first:
row,IC50,SMILES
1,11 to 100 nM,"COc1c[nH]c(=O)c2ccc(-c3nc(-c4ccc(N5CCN(C(C)C)CC5)cc4)c(F)nc3N)cc12 [Example I-119, 6-(3-amino-5-fluoro-6-(4-(4-isopropylpiperazin-1-yl)phenyl)pyrazin-2-yl)-4-methoxyisoquinolin-1(2H)-one]"
2,0.1 to 10 nM,"Cc1[nH]c(=O)c2ccc(-c3nc(-c4ccc(N5CCN(CC6CC6)CC5)cc4)c(F)nc3N)cc2c1Cl [Example I-122, 6-(3-amino-6-(4-(4-(cyclopropylmethyl)piperazin-1-yl)phenyl)-5-fluoropyrazin-2-yl)-4-chloro-3-methylisoquinolin-1(2H)-one]"
3,11 to 100 nM,"Cc1[nH]c(=O)c2ccc(-c3nc(-c4ccc(N5CC6(CN(C)CCO6)C5)cc4)c(F)nc3N)cc2c1F [Example I-123, 6-(3-amino-5-fluoro-6-(4-(8-methyl-5-oxa-2,8-diazaspiro[3.5]nonan-2-yl)phenyl)pyrazin-2-yl)-4-fluoro-3-methylisoquinolin-1(2H)-one]"
4,101 to 1000 nM,"Cc1nc2cc(-c3nc(-c4ccc(N5CC6(CN(C)CCO6)C5)cc4)c(F)nc3N)ccc2c(=O)[nH]1 [Example I-130, 7-(3-amino-5-fluoro-6-(4-(8-methyl-5-oxa-2,8-diazaspiro[3.5]nonan-2-yl)phenyl)pyrazin-2-yl)-2-methylquinazolin-4(3H)-one]"
5,11 to 100 nM,"COC1CCN(Cc2cc(-c3nc(-c4ccc5c(c4)CCNC5=O)c(N)nc3F)ccc2C2CCOCC2)CC1 [Example I-131, 6-(3-amino-5-fluoro-6-(3-((4-methoxypiperidin-1-yl)methyl)-4-(tetrahydro-2H-pyran-4-yl)phenyl)pyrazin-2-yl)-3,4-dihydroisoquinolin-1(2H)-one]"
6,0.1 to 10 nM,"Nc1nc(F)c(-c2ccc(N3CCN(CCCC(F)F)CC3)cc2)nc1-c1ccc2c(=O)[nH]cc(F)c2c1 [Example I-136, 6-(3-amino-6-(4-(4-(4,4-difluorobutyl)piperazin-1-yl)phenyl)-5-fluoropyrazin-2-yl)-4-fluoroisoquinolin-1(2H)-one]"
7,0.1 to 10 nM,"Nc1nc(F)c(-c2ccc(N3CCN(CCCC(F)F)CC3)cc2)nc1-c1cc(F)c2c(c1)CCNC2=O [Example I-137, 6-(3-amino-6-(4-(4-(4,4-difluorobutyl)piperazin-1-yl)phenyl)-5-fluoropyrazin-2-yl)-8-fluoro-3,4-dihydroisoquinolin-1(2H)-one]"
8,11 to 100 nM,"COC1CCN(Cc2cc(-c3nc(-c4ccc5c(c4)CCNC5=O)c(N)nc3F)ccc2N2CCOCC2)CC1 [Example I-138, 6-(3-amino-5-fluoro-6-(3-((4-methoxypiperidin-1-yl)methyl)-4-morpholinophenyl)pyrazin-2-yl)-3,4-dihydroisoquinolin-1(2H)-one]"
9,0.1 to 10 nM,"Cc1c[nH]c(=O)c2ccc(-c3nc(-c4ccc(N5CCN(C6CCC6)CC5)cc4)c(F)nc3N)cc12 [Example I-139, 6-(3-amino-6-(4-(4-cyclobutylpiperazin-1-yl)phenyl)-5-fluoropyrazin-2-yl)-4-methylisoquinolin-1(2H)-one]"
10,0.1 to 10 nM,"CC(C)N1CCN(c2ccc(-c3nc(-c4cc5c(F)c[nH]c(=O)c5cc4F)c(N)nc3F)cc2)CC1 [Example I-140, 6-(3-amino-5-fluoro-6-(4-(4-isopropylpiperazin-1-yl)phenyl)pyrazin-2-yl)-4,7-difluoroisoquinolin-1(2H)-one]"
11,0.1 to 10 nM,"Nc1nc(F)c(-c2ccc(N3CCN(CC4CC4)CC3)cc2)nc1-c1cc2c(F)c[nH]c(=O)c2cc1F [Example I-141, 6-(3-amino-6-(4-(4-(cyclopropylmethyl)piperazin-1-yl)phenyl)-5-fluoropyrazin-2-yl)-4,7-difluoroisoquinolin-1(2H)-one]"
12,0.1 to 10 nM,"CN(C)Cc1cc(-c2nc(-c3cc4c(F)c[nH]c(=O)c4cc3F)c(N)nc2F)ccc1C1CCOCC1 [Example I-143, 6-(3-amino-6-(3-((dimethylamino)methyl)-4-(tetrahydro-2H-pyran-4-yl)phenyl)-5-fluoropyrazin-2-yl)-4,7-difluoroisoquinolin-1(2H)-one]"
13,0.1 to 10 nM,"Nc1nc(F)c(-c2ccc(N3CCOCC3)c(CN3CCC3)c2)nc1-c1ccc2c(c1)CCNC2=O [Example I-144, 6-(3-amino-6-(3-(azetidin-1-ylmethyl)-4-morpholinophenyl)-5-fluoropyrazin-2-yl)-3,4-dihydroisoquinolin-1(2H)-one]"
14,0.1 to 10 nM,"Nc1nc(F)c(-c2ccc(C3CCOCC3)c(CN3CCCC3)c2)nc1-c1cc(F)c2c(c1)CCNC2=O [Example I-149, 6-(3-amino-5-fluoro-6-(3-(pyrrolidin-1-ylmethyl)-4-(tetrahydro-2H-pyran-4-yl)phenyl)pyrazin-2-yl)-8-fluoro-3,4-dihydroisoquinolin-1(2H)-one]"
15,11 to 100 nM,"CC1NC(=O)c2c(F)cc(-c3nc(-c4ccc(N5CCN(C6CCC6)CC5)cc4)c(F)nc3N)cc2C1(F)F (centres unmarked) [Example I-150, 6-(3-amino-6-(4-(4-cyclobutylpiperazin-1-yl)phenyl)-5-fluoropyrazin-2-yl)-4,4,8-trifluoro-3-methyl-3,4-dihydroisoquinolin-1(2H)-one]"

# From US20240425479A1, “HALO-SUBSTITUTED AMINO AZA-HETEROARYL COMPOUNDS AS INHIBITORS OF THE HAEMATOPOIETIC PROGENITOR KINASE 1 (HPK1)” (priority 2021, published 2024)
